Source: US8575183B2, “Heterocyclic compounds and their uses” (priority 2010, dated 2013)

These molecules were tested against T1, PI3k δ (Homo sapiens, UniProt O00329) (assay: biochemical). Details: not given.
T1 construct: Full length p110 subunits of PI3k α, β and δ; polyHis (N); made in house; host or cells: Sf9 insect cells (baculovirus)
Assay type: biochemical
Protocol: Full length p110 subunits of PI3k α, β and δ, N-terminally labeled with polyHis tag, were coexpressed with p85 with Baculo virus expression vectors in sf9 insect cells. P110/p85 heterodimers were purified by sequential Ni-NTA, Q-HP, Superdex-100 chromatography. Purified α, β and δ isozymes were stored at −20° C. in 20 mM Tris, pH 8, 0.2M NaCl, 50% glycerol, 5 mM DTT, 2 mM Na cholate. […] The γ isozyme was purified by sequential Ni-NTA, Superdex-200, Q-HP chromatography. The γ isozyme was stored frozen at −80° C. in NaH2PO4, pH 8, 0.2M NaCl, 1% ethylene glycol, 2 mM β-mercaptoethanol.
Phospatidyl inositol phosphoacceptor, Ptdlns(4,5)P2 P4508, was from Echelon Biosciences. […] Test compounds were dissolved in dimethyl sulfoxide and diluted with three-fold serial dilutions. The compound in DMSO (1 μL) was added per test well, and the inhibition relative to reactions containing no compound, with and without enzyme was determined. After assay incubation at rt, the reaction was stopped and residual ATP determined by addition of an equal volume of a commercial ATP bioluminescence kit (Perkin Elmer EasyLite) according to the manufacturer's instructions, and detected using a AnalystGT luminometer.

T1 sequence (O00329 whole entry): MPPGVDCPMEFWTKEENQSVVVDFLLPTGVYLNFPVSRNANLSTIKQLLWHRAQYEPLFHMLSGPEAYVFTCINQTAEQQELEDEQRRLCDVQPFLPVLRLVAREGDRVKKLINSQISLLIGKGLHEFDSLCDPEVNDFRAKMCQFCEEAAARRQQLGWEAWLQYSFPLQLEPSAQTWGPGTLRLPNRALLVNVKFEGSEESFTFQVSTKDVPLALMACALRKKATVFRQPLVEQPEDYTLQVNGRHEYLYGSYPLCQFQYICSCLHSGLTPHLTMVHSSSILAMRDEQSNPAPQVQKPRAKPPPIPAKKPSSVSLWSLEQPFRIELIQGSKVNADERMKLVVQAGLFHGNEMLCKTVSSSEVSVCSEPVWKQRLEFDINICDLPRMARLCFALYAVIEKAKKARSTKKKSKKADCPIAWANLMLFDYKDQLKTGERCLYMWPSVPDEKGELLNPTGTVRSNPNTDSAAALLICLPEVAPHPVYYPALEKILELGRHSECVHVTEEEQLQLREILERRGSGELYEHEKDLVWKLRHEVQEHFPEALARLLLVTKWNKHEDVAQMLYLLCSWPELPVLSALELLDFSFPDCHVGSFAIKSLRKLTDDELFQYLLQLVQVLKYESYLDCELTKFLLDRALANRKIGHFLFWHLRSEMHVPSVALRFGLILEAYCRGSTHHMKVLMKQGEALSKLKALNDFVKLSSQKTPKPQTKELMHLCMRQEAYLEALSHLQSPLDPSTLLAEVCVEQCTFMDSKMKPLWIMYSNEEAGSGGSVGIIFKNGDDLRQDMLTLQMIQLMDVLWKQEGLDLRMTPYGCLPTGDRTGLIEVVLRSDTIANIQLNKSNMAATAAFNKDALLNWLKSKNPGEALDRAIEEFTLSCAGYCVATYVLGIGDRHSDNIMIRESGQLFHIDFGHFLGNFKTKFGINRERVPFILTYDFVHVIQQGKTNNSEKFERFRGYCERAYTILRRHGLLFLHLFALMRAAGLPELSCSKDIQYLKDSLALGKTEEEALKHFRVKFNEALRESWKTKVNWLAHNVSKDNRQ
T1 sequence (P27986 whole entry partner): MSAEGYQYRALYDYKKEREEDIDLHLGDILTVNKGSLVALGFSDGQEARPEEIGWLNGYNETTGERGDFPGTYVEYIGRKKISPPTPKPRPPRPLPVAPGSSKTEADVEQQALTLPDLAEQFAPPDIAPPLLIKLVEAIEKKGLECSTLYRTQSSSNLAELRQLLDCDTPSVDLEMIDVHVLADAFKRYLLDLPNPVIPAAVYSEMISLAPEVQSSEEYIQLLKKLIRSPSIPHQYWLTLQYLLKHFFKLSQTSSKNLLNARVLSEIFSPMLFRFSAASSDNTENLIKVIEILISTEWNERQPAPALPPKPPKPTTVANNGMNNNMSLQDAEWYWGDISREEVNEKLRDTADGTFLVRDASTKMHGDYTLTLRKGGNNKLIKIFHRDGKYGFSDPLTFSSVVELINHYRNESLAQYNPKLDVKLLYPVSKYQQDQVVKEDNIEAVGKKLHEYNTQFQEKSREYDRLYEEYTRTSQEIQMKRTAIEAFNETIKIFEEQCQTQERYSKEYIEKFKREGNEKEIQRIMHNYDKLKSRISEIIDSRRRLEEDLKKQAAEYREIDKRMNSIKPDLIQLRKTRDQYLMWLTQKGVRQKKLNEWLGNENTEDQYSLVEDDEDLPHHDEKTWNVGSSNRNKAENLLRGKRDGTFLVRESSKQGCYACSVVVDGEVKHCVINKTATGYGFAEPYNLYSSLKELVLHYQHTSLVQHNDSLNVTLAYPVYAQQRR

Point of comparison: `C[C@@H](Nc1ncnc(N)c1C#N)c1nc2ccc(F)cc2n1-c1cncc(-c2ccccn2)c1` [4-amino-6-(((1R)-1-(1-(2,3′-bipyridin-5′-yl)-6-fluoro-1H-benzimidazol-2-yl)ethyl)amino)-5-pyrimidinecarbonitrile], Ki 1190 nM. Against it:
- CC(Nc1ncnc(N)c1C#N)c1nc2ncccc2n1-c1ccccn1 (centres unmarked) — 2.4-fold higher, 2900 nM
- C[C@H](Nc1ncnc(N)c1C#N)c1nc2ccc(F)cc2n1-c1cncc(-c2ccccn2)c1 [4-amino-6-(((1S)-1-(1-(2,3′-bipyridin-5′-yl)-6-fluoro-1H-benzimidazol-2-yl)ethyl)amino)-5-pyrimidinecarbonitrile] — 4.8-fold lower, 248 nM

Same assay, conditions: read-out: PI3k δ Ki

Point of comparison: `C[C@H](Nc1ncnc(N)c1C#N)c1nc2cccc(C(=O)NC(C)(C)C)c2n1C1CC1` [2-((1S)-1-((6-amino-5-cyano-4-pyrimidinyl)amino)ethyl)-N-tert-butyl-1-cyclopropyl-1H-benzimidazole-7-carboxamide], Ki 73.8 nM. Against it:
- C[C@H](Nc1ncnc(N)c1C#N)c1nc2cccc(S(C)(=O)=O)c2n1Cc1cc(F)cc(F)c1 [4-amino-6-(((1S)-1-(1-(3,5-difluorobenzyl)-7-(methylsulfonyl)-1H-benzimidazol-2-yl)ethyl)amino)-5-pyrimidinecarbonitrile] — 4-fold higher, 295 nM
- C[C@H](Nc1ncnc(N)c1C#N)c1nc2c(F)cc(F)cc2n1-c1cccnc1 [4-amino-6-(((1S)-1-(4,6-difluoro-1-(3-pyridinyl)-1H-benzimidazol-2-yl)ethyl)amino)-5-pyrimidinecarbonitrile] — 11-fold lower, 6.74 nM
- C[C@H](Nc1ncnc(N)c1C#N)c1nc2c(F)cccc2n1-c1cncc(F)c1 [4-amino-6-(((1S)-1-(4-fluoro-1-(5-fluoro-3-pyridinyl)-1H-benzimidazol-2-yl)ethyl)amino)-5-pyrimidinecarbonitrile] — 1.6-fold lower, 47 nM
- CNC(=O)c1cccc2nc([C@H](C)Nc3ncnc(N)c3C#N)c(-c3cncc(F)c3)n12 [2-((1S)-1-((6-amino-5-cyano-4-pyrimidinyl)amino)ethyl)-3-(5-fluoro-3-pyridinyl)-N-methylimidazo[1,2-a]pyridine-5-carboxamide] — within 1.5-fold, 81.1 nM
- C[C@H](Nc1ncnc(N)c1C#N)c1nc2cccnn2c1-c1ccccn1 [4-amino-6-(((1S)-1-(3-(2-pyridinyl)imidazo[1,2-b]pyridazin-2-yl)ethyl)amino)-5-pyrimidinecarbonitrile] — 27-fold higher, 2010 nM
- C[C@@H](Nc1ncnc(N)c1C#N)c1nc2ccc(F)cc2n1-c1cccc(-c2ccccn2)c1 [4-amino-6-(((1R)-1-(6-fluoro-1-(3-(2-pyridinyl)phenyl)-1H-benzimidazol-2-yl)ethyl)amino)-5-pyrimidinecarbonitrile] — 1.8-fold higher, 132 nM
- C[C@@H](Nc1ncnc(N)c1C#N)c1nc2ccc(F)cc2n1-c1cccc(C#N)c1 [4-amino-6-(((1R)-1-(1-(3-cyanophenyl)-6-fluoro-1H-benzimidazol-2-yl)ethyl)amino)-5-pyrimidinecarbonitrile] — 5.6-fold higher, 411 nM
- C[C@H](Nc1ncnc(N)c1C#N)c1nc2cc(F)ccc2n1-c1cncc(F)c1 [4-amino-6-(((1S)-1-(5-fluoro-1-(5-fluoro-3-pyridinyl)-1H-benzimidazol-2-yl)ethyl)amino)-5-pyrimidinecarbonitrile] — within 1.5-fold, 96.4 nM
- C[C@H](Nc1ncnc2[nH]cnc12)c1nc2ccc(Cl)cc2n1-c1cc(F)cc(F)c1 [N-((1S)-1-(6-chloro-1-(3,5-difluorophenyl)-1H-benzimidazol-2-yl)ethyl)-9H-purin-6-amine] — 8.8-fold lower, 8.4 nM
- CC[C@H](Nc1ncnc(N)c1C#N)c1nc2cccc(C(F)(F)F)c2n1CC1CC1 [4-amino-6-(((1S)-1-(1-(cyclopropylmethyl)-7-(trifluoromethyl)-1H-benzimidazol-2-yl)propyl)amino)-5-pyrimidinecarbonitrile] — within 1.5-fold, 53.1 nM
- C[C@H](Nc1ncnc(N)c1C#N)c1nc2cccc(F)c2n1C1CC1 [4-amino-6-(((1S)-1-(1-cyclopropyl-7-fluoro-1H-benzimidazol-2-yl)ethyl)amino)-5-pyrimidinecarbonitrile] — 6-fold lower, 12.2 nM
- C[C@H](Nc1ncnc(N)c1C#N)c1nc2ccc(Cl)cc2n1-c1cc(F)cc(F)c1 [4-amino-6-(((1S)-1-(6-chloro-1-(3,5-difluorophenyl)-1H-benzimidazol-2-yl)ethyl)amino)-5-pyrimidinecarbonitrile] — 27-fold lower, 2.7 nM
- C[C@H](Nc1ncnc(N)c1C#N)c1nc2ccc(F)cn2c1-c1cc(F)cc(Cl)c1 [4-amino-6-(((1S)-1-(3-(3-chloro-5-fluorophenyl)-6-fluoroimidazo[1,2-a]pyridin-2-yl)ethyl)amino)-5-pyrimidinecarbonitrile] — 8.4-fold lower, 8.8 nM
- CNC(=O)c1cccc2nc([C@H](C)Nc3ncnc(N)c3C(F)(F)F)n(C3CC3)c12 [2-((1S)-1-((6-amino-5-(trifluoromethyl)-4-pyrimidinyl)amino)ethyl)-1-cyclopropyl-N-methyl-1H-benzimidazole-7-carboxamide] — 2-fold lower, 37 nM
- C[C@H](Nc1ncnc(N)c1C#N)c1nc2ccc(F)cc2n1CC1CC1 [4-amino-6-(((1S)-1-(1-(cyclopropylmethyl)-6-fluoro-1H-benzimidazol-2-yl)ethyl)amino)-5-pyrimidinecarbonitrile] — 24-fold lower, 3.1 nM
- C[C@H](Nc1ncnc2[nH]cnc12)c1nc2cccc(F)c2[nH]1 [N-((1S)-1-(7-fluoro-1H-benzimidazol-2-yl)ethyl)-9H-purin-6-amine] — 8.8-fold higher, 650 nM
- CNC(=O)c1cccc2nc([C@H](C)Nc3ncnc(N)c3C#N)c(-c3ccccc3)n12 [2-((1S)-1-((6-amino-5-cyano-4-pyrimidinyl)amino)ethyl)-N-methyl-3-phenylimidazo[1,2-a]pyridine-5-carboxamide] — 2.8-fold lower, 26.2 nM
- C[C@H](Nc1ncnc2[nH]cnc12)c1nc2ccc(F)cc2n1-c1cccc(F)c1 [N-((1S)-1-(6-fluoro-1-(3-fluorophenyl)-1H-benzimidazol-2-yl)ethyl)-9H-purin-6-amine] — 27-fold lower, 2.7 nM
- CNC(=O)c1cccc2nc([C@H](C)Nc3ncnc(N)c3C#N)n(-c3cncc(F)c3)c12 [2-((1S)-1-((6-amino-5-cyano-4-pyrimidinyl)amino)ethyl)-1-(5-fluoro-3-pyridinyl)-N-methyl-1H-benzimidazole-7-carboxamide] — 7.2-fold lower, 10.2 nM
- C[C@H](Nc1ncnc(N)c1C#N)c1nc2c(S(C)(=O)=O)cccc2n1Cc1ccc(F)cc1 [4-amino-6-(((1S)-1-(1-(4-fluorobenzyl)-4-(methylsulfonyl)-1H-benzimidazol-2-yl)ethyl)amino)-5-pyrimidinecarbonitrile] — 33-fold higher, 2410 nM
- CNC(=O)c1cccc2nc([C@H](C)Nc3ncnc(N)c3C#N)n(C3CC3)c12 [2-((1S)-1-((6-amino-5-cyano-4-pyrimidinyl)amino)ethyl)-1-cyclopropyl-N-methyl-1H-benzimidazole-7-carboxamide] — 10-fold lower, 7.1 nM
- CNC(=O)c1cccc2nc([C@H](C)Nc3ncnc4[nH]cnc34)n(C3CC3)c12 [1-cyclopropyl-N-methyl-2-((1S)-1-(9H-purin-6-ylamino)ethyl)-1H-benzimidazole-7-carboxamide] — 5.1-fold lower, 14.6 nM
- C[C@H](Nc1ncnc(N)c1C#N)c1nc2cc(F)ccc2n1-c1ccccc1 [4-amino-6-(((1S)-1-(5-fluoro-1-phenyl-1H-benzimidazol-2-yl)ethyl)amino)-5-pyrimidinecarbonitrile] — 43-fold lower, 1.7 nM
- CNC(=O)c1cccc2nc([C@@H](C)Nc3ncnc(N)c3C#N)n(-c3cncc(F)c3)c12 [2-((1R)-1-((6-amino-5-cyano-4-pyrimidinyl)amino)ethyl)-1-(5-fluoro-3-pyridinyl)-N-methyl-1H-benzimidazole-7-carboxamide] — 19-fold higher, 1370 nM
- CC[C@H](Nc1ncnc(N)c1C#N)c1nc2cccc(C(=O)NC)c2n1C1CC1 [2-((1S)-1-((6-amino-5-cyano-4-pyrimidinyl)amino)propyl)-1-cyclopropyl-N-methyl-1H-benzimidazole-7-carboxamide] — 1.9-fold lower, 39 nM
- C[C@H](Nc1ncnc(N)c1C#N)c1nc2cccc(Br)c2n1-c1cncc(F)c1 [4-amino-6-(((1S)-1-(7-bromo-1-(5-fluoro-3-pyridinyl)-1H-benzimidazol-2-yl)ethyl)amino)-5-pyrimidinecarbonitrile] — 1.5-fold lower, 48.1 nM
- C[C@H](Nc1ncnc(N)c1C#N)c1nc2cccnc2n1-c1cc(F)cc(F)c1 [4-amino-6-(((1S)-1-(3-(3,5-difluorophenyl)-3H-imidazo[4,5-b]pyridin-2-yl)ethyl)amino)-5-pyrimidinecarbonitrile] — 1.9-fold higher, 138 nM
- C[C@H](Nc1ncnc(N)c1C#N)c1nc2cccc(C(=O)N3CCN(C)CC3)n2c1-c1ccccc1 [4-amino-6-(((1S)-1-(5-((4-methyl-1-piperazinyl)carbonyl)-3-phenylimidazo[1,2-a]pyridin-2-yl)ethyl)amino)-5-pyrimidinecarbonitrile] — 6.3-fold lower, 11.8 nM
- C[C@H](Nc1ncnc(N)c1C#N)c1nc2ccc(F)cc2n1-c1cccc(C#N)c1 [4-amino-6-(((1S)-1-(1-(3-cyanophenyl)-6-fluoro-1H-benzimidazol-2-yl)ethyl)amino)-5-pyrimidinecarbonitrile] — 3.9-fold lower, 18.8 nM
- C[C@@H](Nc1ncnc(N)c1C#N)c1nc2cc(F)ccc2n1-c1ccccn1 [4-amino-6-(((1R)-1-(5-fluoro-1-(2-pyridinyl)-1H-benzimidazol-2-yl)ethyl)amino)-5-pyrimidinecarbonitrile] — 11-fold lower, 7 nM
- CC(Nc1ncnc(N)c1C#N)c1sc2ccccc2c1-c1ccccc1 (centres unmarked) [4-amino-6-((1-(3-phenyl-1-benzothiophen-2-yl)ethyl)amino)-5-pyrimidinecarbonitrile] — 28-fold lower, 2.66 nM
